Experimental data: patent publication US10517889B2, “Modulators of SMAD7 expression” (Ionis Pharmaceuticals, Inc., priority 2017, dated 2019)
Several values for one entry are separate records, joined by “and”; a condition that tells them apart may be missing. Equal values may be shown once. Strand notation (5' to 3'): a small letter for the sugar, then the base; units joined by * are phosphorothioate-linked, units joined directly phosphodiester-linked; [ ] holds rarer units or linkages, { } end groups; capitals alone tell only the bases. k = constrained ethyl (cEt); [5mC] = 5-methylcytosine; d = 2'-deoxy (DNA)

Columns and labels:
[1] = Tissue and organ histopathology after oral gavage in CD-1 mice (Example 7); assay type: in vivo; settings: daily oral gavage 500 mg/kg for one month, in words
Procedure: Groups of 7-8 week old male CD-1 mice were given an oral gavage dose once daily for 4 weeks of 500 mg/kg of Ionis SMAD7 oligonucleotides. Each group contained 8 mice. One group of male CD-1 mice was administered saline by oral gavage daily.
Histopathology evaluations were performed on the mice treated with Ionis oligonucleotides to evaluate any tissue damage in the liver (with gallbladder), kidneys, heart, spleen, thymus, mesenteric lymph nodes, and different parts of the GI tract, including duodenum, ileum, and colon (proximal and distal). Tissues were collected and fixed in 10% neutral-buffered formalin, embedded in paraffin, sectioned, and stained with hematoxylin and eosin. All the tissues were histologically unremarkable in all mice.

mouse Smad7 mRNA [2] = test: Murine Smad7 mRNA expression after subcutaneous administration in BALB/c mice (Example 10); assay type: in vivo; settings: 50 mg/kg subcutaneous once a week for 4 weeks, 24 hours after last dose
Procedure: The objective of this study was to evaluate the efficacy of Ionis SMAD7 antisense oligonucleotides compared to ION 736697/Mongersen in BALB/c mice following 4 weeks of treatment. Both ION 830025 and ION 798781 are cross-reactive with mouse Smad7 mRNA.
Groups of BALB/c mice were subcutaneously administered 50 mg/kg of Ionis SMAD7 oligonucleotides once a week for 4 weeks. Each group contained 4 mice. One group of mice was administered PBS once a week for 4 weeks. […]

[3] = Plasma chemistry markers after subcutaneous administration in beagle dogs (Example 8); settings: 30 mg/kg subcutaneously, day 31, in words
Procedure: Groups of 24-25 week old male beagle dogs were injected subcutaneously with 30 mg/kg ION Ionis oligonucleotide. There were 4 animals per group. Dogs were injected every two days for the first week (day 1, 3, and 5) and once weekly thereafter (days 8, 15, 22, and 29). A control group of dogs received subcutaneous injections of PBS. Dogs were sacrificed on day 31 approximately 48 hours after the final dose and organs and plasma were harvested for further analysis.
To evaluate the effect of Ionis SMAD7 oligonucleotides on liver and kidney function, plasma levels of transaminases, albumin, creatine and BUN were measured using an automated clinical chemistry analyzer (Toshiba 200FR Neo chemistry analyzer, Toshiba Co., Japan).

[4] = Plasma chemistry markers after oral gavage in beagle dogs (Example 12); settings: 200 mg by oral gavage for 4 weeks, day 30, in words
Procedure: The study was conducted to evaluate the tolerability and pharmacodynamics of select human SMAD7 antisense oligonucleotides in beagle dogs following 4 weeks of treatment. The dogs were administered oligonucleotides by oral gavage.
(§2) Groups of 24-25 week old male beagle dogs were administered 200 mg Ionis human SMAD7 oligonucleotide by oral gavage once a week for 4 weeks. There were 4 animals per group. A control group of dogs received oral administration of distilled water. Dogs were sacrificed on day 30 approximately 48 hours after the final dose and organs and plasma were harvested for further analysis.
To evaluate the effect of Ionis SMAD7 oligonucleotides on liver and kidney function, approximately 1.5 mL of blood samples were collected and put into tubes without anticoagulant for serum separation. The tubes were kept at room temperature for a minimum of 90 min and then centrifuged (approximately 3,000 rpm for 10 min) to obtain serum. Plasma levels of transaminases, albumin, bilirubin, and BUN were measured using an automated clinical chemistry analyzer (Toshiba 200FR Neo chemistry analyzer, Toshiba Co., Japan).

human SMAD7 mRNA [5] = test: Dose-dependent inhibition of human SMAD7 mRNA expression in A431 cells, oligonucleotide added without transfection (Example 5, Study 1); assay type: cell-based; settings: SMAD7 mRNA, in words
Procedure: The newly designed compounds disclosed herein are cEt-modified antisense oligonucleotides. […] The studies described below show a comparison of select cEt-modified gapmers and ION0736697/Mongersen.
A431 cells were plated in collagen I-coated 96-well plates in DMEM with […]. Immediately after plating, 0.08 μM, 0.25 μM, 0.74 μM, 2.22 μM, 6.67 μM, or 20.00 μM concentrations of antisense oligonucleotide were added. The plates were shaken briefly before incubating at 37° C. and 10% CO2. After a treatment period of approximately 48 hours, the cells were washed and lyzed and RNA on 384-well Pall plates with DNase I treatment. SMAD7 mRNA levels were measured by quantitative real-time PCR. Primer probe set RTS5062 was used to measure human SMAD7 mRNA levels. SMAD7 mRNA levels were adjusted according to total RNA content, as measured by RIBOGREEN®. Results are presented as percent inhibition of SMAD7 mRNA expression, relative to untreated control cells.
All Ionis oligonucleotides had greater potency than ION 736697/Mongersen.

[6] = Organ weights after oral gavage in beagle dogs (Example 12); settings: 200 mg by oral gavage for 4 weeks, day 30, in words
Procedure: as §2

[7] = Pharmacokinetics: oligonucleotide concentration in tissues after oral gavage in beagle dogs (Example 12); assay type: in vivo
Procedure: There were 4 animals per group.
Canine tissue exposure following oral administration of the Ionis SMAD7 oligonucleotides was measured in various organs and intestinal tissues.
Plasma concentrations of Ionis oligonucleotides were also measured on Day 28 at various time points.

murine Smad7 mRNA = test: Dose-dependent inhibition of murine Smad7 mRNA in bEND cells, electroporation (Example 5, Study 2); assay type: cell-based, mouse; settings: in words
Procedure: Many of the Ionis designed oligonucleotides as well as ION 736697/Mongersen are complementary to mouse Smad7 mRNA. […] After a treatment period of approximately 16 hours, the cells were washed and lyzed and RNA on 384-well Pall plates with DNase I treatment. Smad7 mRNA levels were measured by quantitative real-time PCR. Primer probe set RTS1114 (forward sequence […], designated herein as SEQ ID NO: 8; reverse sequence […], designated herein as SEQ ID NO: 9; probe sequence […], designated herein as SEQ ID NO: 10) was used to measure murine Smad7 mRNA levels. Smad7 mRNA levels were adjusted according to total RNA content, as measured by RIBOGREEN®. Results are presented as percent inhibition of Smad7 mRNA expression, relative to untreated control cells.
Many of the Ionis oligonucleotides had greater potency than ION 736697/Mongersen.

mouse Smad7 mRNA [8] = test: Pharmacology: mouse Smad7 mRNA expression in liver, kidney, duodenum, ileum and colon after subcutaneous administration in CD-1 mice (Example 6); assay type: in vivo; settings: 50 mg/kg subcutaneous twice weekly for 7 weeks, normalized to GAPDH
Procedure: (§1) Groups of 8-9 week old male CD-1 mice were injected subcutaneously twice a week for 7 weeks with 50 mg/kg of Ionis oligonucleotides (100 mg/kg/week dose). Each group contained 4 mice. One group of male CD-1 mice was injected subcutaneously twice a week for 7 weeks with PBS. Plasma was collected for analysis on day 28.
The pharmacological activity of the Ionis oligonucleotides in mice was assessed by measuring mouse Smad7 mRNA expression in liver, kidney, duodenum, ileum, and colon at necropsy.
Tissue samples from all mice were analyzed for Smad7 mRNA expression using the primer probe set HTS7555 (forward sequence […], designated SEQ ID NO: 2737; reverse sequence […], designated SEQ ID NO: 2738; probe sequence […], designated SEQ ID NO: 2739), which was normalized to mRNA levels of the housekeeping gene, GAPDH. One-way ANOVA with Dunnet's comparison test was used for statistical analysis.

human SMAD7 mRNA [9] = test: Antisense inhibition of human SMAD7 mRNA expression in Hep3B cells by 3-10-3 cEt gapmers, 10,000 nM, electroporation (Example 2); assay type: cell-based; settings: approximately 24 hours, primer probe set RTS5062, relative to untreated control cells
Method in brief: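 qRT-PCR (RTS5062) of SMAD7 mRNA, normalised to RIBOGREEN total RNA, gave percent inhibition relative to untreated controls. Hep3B cells at 20,000 per well received 10,000 nM oligonucleotide by electroporation, with ~24 h treatment.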

[10] = Hematology assays after subcutaneous administration in CD-1 mice (Example 6); assay type: in vivo; parameters: RBC / Eosinophils / Monocytes: unit not given here; settings: 50 mg/kg subcutaneous twice weekly for 7 weeks
Procedure: as §1
Blood obtained from all mouse groups was measured by an ADVIA2120i hematology analyzer (Siemens, USA) for measurements of the various blood cells, as well as other hematology markers.

[11] = Organ weights after subcutaneous administration in CD-1 mice (Example 6); assay type: in vivo; settings: end of study, 50 mg/kg subcutaneously twice a week for 7 weeks
Procedure: as §1
Ionis SMAD7 oligonucleotides that caused any changes in organ weights outside the expected range for antisense oligonucleotides were excluded from further studies.

[12] = Plasma chemistry markers after subcutaneous administration in CD-1 mice (Example 6); assay type: in vivo; settings: CD-1 mice plasma at day 46; 50 mg/kg subcutaneously twice a week for 7 weeks
Procedure: CD-1® mice (Charles River, Mass.) are a multipurpose mice model, frequently utilized for safety and efficacy testing. The mice were treated with Ionis human SMAD7 antisense oligonucleotides selected from studies described above and evaluated.
Groups of 8-9 week old male CD-1 mice were injected subcutaneously twice a week for 7 weeks with 50 mg/kg of Ionis oligonucleotides (100 mg/kg/week dose). Each group contained 4 mice. One group of male CD-1 mice was injected subcutaneously twice a week for 7 weeks with PBS. […]

human SMAD7 mRNA [13] = test: Dose-dependent inhibition of human SMAD7 mRNA expression in Hep3B cells (Example 3, Study 1 and 2); assay type: cell-based; settings: electroporation; for % inhibition of SMAD7 mRNA expression: approximately 16 hours
Method in brief: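 Hep3B cells, 20,000 per well, electroporated with antisense oligonucleotide at 0.31, 1.25, 5.00 or 20.00 μM (first series) or 0.74, 2.22, 6.67 or 20.00 μM (second series). After ~16 h, SMAD7 mRNA measured by RT-qPCR (RTS5062), normalised to RIBOGREEN total RNA. Percent inhibition vs untreated cells; IC50 derived.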

## ION 790615: 3-10-3 (S)-cEt gapmer targeting human SMAD7; top lead compound (k[5mC]*k[5mC]*kA*dA*dT*dG*dA*dG*dA*dA*dT*dG*d[5mC]*kT*kT*k[5mC])
[1]
  Histopathology: oligonucleotide-related tissue alterations: not associated with any antisense oligonucleotide-related tissue alterations
Mouse Smad7 mRNA [2]
  Mouse Smad7 mRNA expression (% inhibition), Colon: 71 % inhibition
  Mouse Smad7 mRNA expression (% inhibition), Duodenum: 39 % inhibition
  Mouse Smad7 mRNA expression (% inhibition), Ileum: 41 % inhibition
  Mouse Smad7 mRNA expression (% inhibition), Kidney: 28 % inhibition
  Mouse Smad7 mRNA expression (% inhibition), Liver: 47 % inhibition

## ION 798781 (CGTAAGATTCACAGCA; 3-10-3 cEt gapmer, further chemistry not given here)
[3]
  Tolerability (plasma chemistry markers): well tolerated
[4]
  Tolerability (plasma chemistry markers): very well tolerated
Human SMAD7 mRNA [5]
  Potency/efficacy compared with ION 736697/Mongersen: more efficacious than ION 736697/Mongersen
[1]
  Histopathology: oligonucleotide-related tissue alterations: not associated with any antisense oligonucleotide-related tissue alterations
[6]
  Tolerability (organ weights): very well tolerated
[7]; 200 mg by oral gavage for 4 weeks, in words
  Tissue accumulation of oligonucleotide: higher accumulation in the liver and kidneys
[7]; 200 mg oral gavage for 4 weeks, duodenum
  Oligonucleotide concentration in tissues, Duodenum: 0.6 µg/g
[7]; 200 mg oral gavage for 4 weeks, ileum
  Oligonucleotide concentration in tissues, Ileum: 0.5 µg/g
[7]; 200 mg oral gavage for 4 weeks, kidney
  Oligonucleotide concentration in tissues, Kidney: 108.1 µg/g
[7]; 200 mg oral gavage for 4 weeks, liver
  Oligonucleotide concentration in tissues, Liver: 12.9 µg/g
[7]; 200 mg oral gavage for 4 weeks, proximal colon
  Oligonucleotide concentration in tissues, Proximal colon: 0.1 µg/g
Mouse Smad7 mRNA [2]
  Mouse Smad7 mRNA expression (% inhibition), Colon: 41 % inhibition
  Mouse Smad7 mRNA expression (% inhibition), Duodenum: 27 % inhibition
  Mouse Smad7 mRNA expression (% inhibition), Ileum: 22 % inhibition
  Mouse Smad7 mRNA expression (% inhibition), Kidney: 11 % inhibition
  Mouse Smad7 mRNA expression (% inhibition), Liver: 36 % inhibition
Murine Smad7 mRNA
  Potency compared with ION 736697/Mongersen: more potent than ION 736697/Mongersen

## 799144 (antisense kT*kT*kG*dG*dG*dT*dT*dA*dT*dG*dA*d[5mC]*dG*kG*kA*k[5mC]) [compound 799144]
Mouse Smad7 mRNA [8]; kidney
  % inhibition of Smad7 mRNA expression (compared to control), Kidney: 3%
Mouse Smad7 mRNA [8]; liver
  % inhibition of Smad7 mRNA expression (compared to control), Liver: 0%
Human SMAD7 mRNA [9]; Hep3B cells, electroporation with 10,000 nM antisense oligonucleotide
  % inhibition of SMAD7 mRNA expression: 72%
Human SMAD7 mRNA [9]; SMAD7 mRNA, Hep3B cells, 10,000 nM antisense oligonucleotide, electroporation
  % Inhibition: 72%
[10]
  Eosinophils: 2.9
  Hematocrit: 43.1%
  Hemoglobin: 14.3 g/dL
  Lymphocytes: 80.7%
  MCH: 15.2 pg
  MCHC: 33.2 g/dL
  MCV: 45.8 fL
  Monocytes: 4.9
  Neutrophils: 11.4%
  RBC: 9.5
  Reticulocytes: 3.3%
  WBC: 6.2 10^3/μL
  platelets: 614.0 10^3/μL
[10]; n.d. = below detection levels
  Basophils: 0.1 10^3/μL
[11]
  Organ weights, Kidneys: 0.6 g
  Organ weights, Liver: 2.3 g
  Organ weights, Spleen: 0.1 g
[12]
  ALT: 253 IU/L
  AST: 170 IU/L
  Albumin: 2.7 g/dL
  BUN: 21 mg/dL
Human SMAD7 mRNA [13]; 740 nM, Study 2, relative to untreated control cells
  % inhibition of SMAD7 mRNA expression: 32% and 40%
Human SMAD7 mRNA [13]; 2220 nM, Study 2
  % inhibition of SMAD7 mRNA expression: 50% and 57%
Human SMAD7 mRNA [13]; 6670.0 nM, Study 2
  % inhibition of SMAD7 mRNA expression: 67% and 60%
Human SMAD7 mRNA [13]; 20000.0 nM, Study 2
  % inhibition of SMAD7 mRNA expression: 83% and 87%
Human SMAD7 mRNA [13]; Study 2 (740-20000 nM)
  IC50: 2 µM and 1 µM
